Experimental data: US9585892B2, “Solid forms comprising N-(5-tert-butyl-isoxazol-3-yl)-N′-{4-[7-(2-morpholin-4-yl-ethoxy)imidazo[2,1-b][1,3]benzothiazol-2-yl]phenyl}urea, compositions thereof, and uses therewith” (AMBIT BIOSCIENCES CORPORATION, priority 2007, dated 2017)
“Also recorded” adds a separate entry of the source. Where a name gives a salt, the structure may show the parent alone. Read-outs that look alike come from different tables or passages of the source.

Key:
Assay type in all cases: physicochemical
[1] = Stress experiments (temperature or relative humidity, XRPD after stress)
Procedure: Stress Experiments. Solids were stressed under different temperature or relative humidity (RH) environments for a measured time period. Specific RH values were achieved by placing the sample inside sealed chambers containing saturated salt solutions. The salt solutions were selected and prepared following an ASTM standard procedure. Samples were analyzed by XRPD immediately after removal from the stress environment.
X-ray powder diffraction analyses were performed on an Inel XRG-3000 diffractometer, equipped with a curved position-sensitive detector with a […] of 120°. Real time data was collected using Cu Kα radiation starting at approximately 4 ° 2θ at a resolution of 0.03 ° 2θ. The tube voltage and amperage were set to 40 kV and 30 mA, respectively. […] Samples were prepared for analysis by packing them into thin-walled glass capillaries. Each capillary was mounted onto a goniometer head that is motorized to permit spinning of the capillary during data acquisition. Instrument calibration was performed daily using a silicon reference standard.

[2] = Solubility measurements (solvent aliquot addition, visual inspection); settings: read-out: Approximate Solubility
Procedure: A weighed sample was treated with aliquots of the test solvent at room temperature or elevated temperature. Complete dissolution of the test material was determined by visual inspection. Solubility was estimated based on the total solvent used to provide complete dissolution. The actual solubility may be greater than the value calculated because of the use of solvent aliquots that were too large or due to a slow rate of dissolution. […] If complete dissolution was achieved as a result of only one aliquot addition, the solubility is expressed as “greater than.”

[3] = Dynamic vapor sorption/desorption (moisture balance); settings: for post-moisture balance XRPD (resulting material): after sorption/desorption cycle 5-95-5% RH; for weight loss upon initial equilibration: equilibrium at 5% RH; for weight loss on desorption: from 95 to 5% RH
Procedure: Data were collected on a VTI SGA-100 moisture balance system. For sorption isotherms, a sorption range of about 5 to about 95% relative humidity (RH) and a desorption range of about 95 to about 5% RH in 10% RH increments were used for analysis. The samples were not dried prior to analysis. Equilibrium criteria used for analysis were less than 0.0100% weight change in 5 minutes with a maximum equilibration time of 3 hours if the weight criterion was not met. Data were not corrected for the initial moisture content of the samples.

[4] = Oven: 40° C., 4 days, listed as A
[5] = 75% RH, ambient temperature, 3 days
[6] = 75% RH, ambient temperature, 3 days, listed as Amorphous

## CC(C)(C)c1cc(NC(=O)Nc2ccc(-c3cn4c(n3)sc3cc(OCCN5CCOCC5)ccc34)cc2)no1 [Form A of the HCl salt of Compound B1, N-(5-tert-butyl-isoxazol-3-yl)-N′-{4-[7-(2-morpholin-4-yl-ethoxy)imidazo[2,1-b][1,3]benzothiazol-2-yl]phenyl}urea]
[1]; 75% RH, 1 day
  weight gain: 1 day: 4.2% weight gain
[1]; 75% RH, 2 days
  weight gain: 2 days: 3.8% weight gain
[1]; 75% RH, ambient temperature, 4 days
  XRPD Result after stress: Form D
[1]; Oven: 40° C., 4 days
  XRPD Result after stress: mixture of Form A and Form E
[1]; [4]
  XRPD Result after stress: A + E
  weight loss: 4 days: 3.0% weight loss
[2]; 1,4-dioxane, organic solvent or mixture, thermodynamic from solid, 1,4-Dioxane, Ambient
  solubility: < 2000 µg/mL
[2]; 2-butanone, organic solvent or mixture, thermodynamic from solid, 2-Butanone, Ambient
  solubility: < 2000 µg/mL
[2]; acetone, organic solvent or mixture, thermodynamic from solid, Acetone, Ambient
  solubility: < 2000 µg/mL
[2]; acetonitrile, organic solvent or mixture, thermodynamic from solid, Acetonitrile (ACN), Ambient
  solubility: < 2000 µg/mL
[2]; acetonitrile/water (1:1), 60 °C, aqueous with cosolvent or surfactant or cyclodextrin, thermodynamic from solid, ACN/water (1:1), 60° C.
  solubility: ≥ 110000 µg/mL
[2]; dichloromethane, organic solvent or mixture, thermodynamic from solid, Dichloromethane (DCM), Ambient
  solubility: < 2000 µg/mL
[2]; ethanol, organic solvent or mixture, thermodynamic from solid, Ethanol (EtOH), Ambient
  solubility: 1000 µg/mL
[2]; ethanol/water (4:1), 60 °C, organic solvent or mixture, thermodynamic from solid, Ethanol/water (4:1), 60° C.
  solubility: ≥ 39000 µg/mL
[2]; ethanol/water (24:1), 60 °C, organic solvent or mixture, thermodynamic from solid, Ethanol/water (24:1), 60° C.
  solubility: < 2000 µg/mL
[2]; ethyl acetate, organic solvent or mixture, thermodynamic from solid, Ethyl Acetate (EtOAc), Ambient
  solubility: < 2000 µg/mL
[2]; isopropanol, organic solvent or mixture, thermodynamic from solid, Isopropanol (IPA), Ambient
  solubility: < 2000 µg/mL
[2]; isopropanol/water (24:1), 60 °C, organic solvent or mixture, thermodynamic from solid, Isopropanol/water (24:1), 60° C.
  solubility: < 2000 µg/mL
[2]; methanol, organic solvent or mixture, thermodynamic from solid, Methanol (MeOH), Ambient
  solubility: 3000 µg/mL
[2]; nitromethane, organic solvent or mixture, thermodynamic from solid, Nitromethane, Ambient
  solubility: < 2000 µg/mL
[2]; tetrahydrofuran, organic solvent or mixture, thermodynamic from solid, Tetrahydrofuran (THF), Ambient
  solubility: < 2000 µg/mL
[2]; trifluoroethanol, organic solvent or mixture, thermodynamic from solid, Trifluoroethanol (TFE), Ambient
  solubility: > 72000 µg/mL
[2]; trifluorotoluene, organic solvent or mixture, thermodynamic from solid, Trifluorotoluene (TFT), Ambient
  solubility: < 2000 µg/mL
[2]; water, thermodynamic from solid, Water, Ambient, certain samples formed a gel upon addition of water, actual solubility may differ substantially
  solubility: 36000 µg/mL
[3]
  post-moisture balance XRPD (resulting material): Form D
  weight loss upon initial equilibration: about 3.9%
  weight loss on desorption: about 16.7%
[3]; listed as A
  post-moisture balance XRPD (resulting material): FORM D
  weight loss upon initial equilibration: ~3.9% WEIGHT LOSS UPON EQUILIBRIUM
  weight loss on desorption: ~16.6% WEIGHT LOSS FROM 95 TO 5% RH.
[3]; from 5 to 95% RH
  weight gain on sorption: about 16.7%
[3]; from 5 to 95% RH, listed as A
  water corresponding to the weight gain on sorption: CORRESPONDING TO 6.5 MOLES OF WATER.
  weight gain on sorption: ~16.7% WEIGHT GAIN FROM 5 TO 95% RH,

## CC(C)(C)c1cc(NC(=O)Nc2ccc(-c3cn4c(n3)sc3cc(OCCN5CCOCC5)ccc34)cc2)no1 [Form C of the sulfate salt of Compound B1] [N-(5-tert-butyl-isoxazol-3-yl)-N′-{4-[7-(2-morpholin-4-yl-ethoxy)imidazo[2,1-b][1,3]benzothiazol-2-yl]phenyl}urea]
[1]; 75% RH, 7 days
  deliquescence upon storage: does not deliquesce; also recorded: did not deliquesce

## CC(C)(C)c1cc(NC(=O)Nc2ccc(-c3cn4c(n3)sc3cc(OCCN5CCOCC5)ccc34)cc2)no1 [Form D of the HCl salt of Compound B1, N-(5-tert-butyl-isoxazol-3-yl)-N′-{4-[7-(2-morpholin-4-yl-ethoxy)imidazo[2,1-b][1,3]benzothiazol-2-yl]phenyl}urea]
[1]; Oven: 80° C., 3 days
  XRPD Result after stress: Form D

## CC(C)(C)c1cc(NC(=O)Nc2ccc(-c3cn4c(n3)sc3cc(OCCN5CCOCC5)ccc34)cc2)no1 [Form F of the HCl salt of Compound B1, N-(5-tert-butyl-isoxazol-3-yl)-N′-{4-[7-(2-morpholin-4-yl-ethoxy)imidazo[2,1-b][1,3]benzothiazol-2-yl]phenyl}urea]
[1]; Oven: 80° C., 3 days
  XRPD Result after stress: substantially disordered, but which retains some Form F content
[1]; Oven: 80° C., 3 days, listed as F
  XRPD Result after stress: Disordered + F

## CC(C)(C)c1cc(NC(=O)Nc2ccc(-c3cn4c(n3)sc3cc(OCCN5CCOCC5)ccc34)cc2)no1 [N-(5-tert-butyl-isoxazol-3-yl)-N′-{4-[7-(2-morpholin-4-yl-ethoxy)imidazo[2,1-b][1,3]benzothiazol-2-yl]phenyl}urea]
[1]; [5]
  XRPD Result after stress: remains unchanged
  deliquescence upon storage: does not deliquesce; also recorded: did not deliquesce
  water corresponding to the weight gain: about 4.3 molar equivalents of water
  weight gain: about 12.3%
[1]; [6]
  XRPD Result after stress: Amorphous
  weight gain: white solid, irregular particles, 11.8%
[1]; Oven: 40° C., 8 days
  XRPD Result after stress: remains unchanged
[1]; Oven: 40° C., 8 days, listed as Amorphous
  XRPD Result after stress: Amorphous
